{"source": "patent US10314870B2", "about": "“Tropism modified cancer terminator virus (Ad.5/3 CTV;AD.5/3-CTV-M7)” (priority 2012, dated 2019)", "tested_on": "GBM6 intra-cerebral tumors", "experiment": "Survival of mice with orthotopic GBM6 tumors after intratumoral virus infusion", "type": "in vivo, athymic mice", "details": "virus 1×10^8 pfu intratumoral day 7; SAHA 25 mg/kg QD PO for 5 days", "protocol": "FIG. 24. SAHA enhances MDA-7/IL-24 toxicity in vivo. GBM6 cells (0.5×10^6) were implanted into the brains of athymic mice. Seven days later tumors were infused with 1×10^8 pfu of either Ad.5/3-cmv or Ad.5/3-mda-7. Twenty-four h after virus infusion animals were treated with vehicle diluent (cremophore, PO) or vorinostat (SAHA, 25 mg/kg QD, PO) for 5 days. Animal survival was monitored on a daily basis (n=2, 8 animals total).\nFIG. 25A-E. Ad.5/3-PEG-E1A-mda-7 (Ad.5/3-CTV; Ad.5/3-CTV-M7) prolongs animal survival in a dose-dependent fashion and does so to a greater extent than Ad.5/3- mda-7. Panel A. GBM6-luciferase cells (0.5 ×10^6) were implanted into the brains of athymic mice. Seven days later tumors were infused with 1×10^8 pfu of either: Ad.5/3-cmv: Ad.5/3-mda-7; Ad.5/3-PEG-E1A; or Ad.5/3-PEG-E1A-mda-7 (Ad.5/3-CTV; Ad.5/3-CTV-M7). On the days indicated in the graph animals were injected with luciferin (150 mg/kg) and were imaged 15 min later following placement into an IVIS Xenogen imager. […] Animal survival was monitored on a daily basis (n=2, 6 animals total) ((a) p<0.04 greater survival than Ad.5/3-cmv; (b) p<0.0008 greater survival than Ad.5/3-cmv; (c) p<0.04 greater survival than Ad.5/3-mda-7; (d) p<0.004 greater survival than Ad.5/3-mda-7; (e) p<0.0008 greater survival than Ad.5/3-PEG-E1A-mda-7 (Ad.5/3-CTV; Ad.5/3-CTV-M7) at a dose of 3×10^8 pfu). […]", "data": [{"smiles": "O=C(CCCCCCC(=O)Nc1ccccc1)NO", "note": "[SAHA]", "values": [{"measurement": "animal survival", "result": "did not significantly enhance animal survival"}]}]}
